Assay results: patent publication US20050038125A1, “Method for the treatment of arthritis and pain” (priority 2003, published 2005)
Values belong to the compound of their own block, whether it stands above or below them.

Legend:
[1] = system: PGE2 production in mouse whole blood; test: LPS stimulated PGE2 production by mouse whole blood; type: cell-based
Description: Murine blood (C57/b16 male) was collected in heparinized collection tubes. The blood was diluted 0.5 times with cell culture medium without serum. 150 μl diluted blood was transferred into a 96-well microtiterplate. Silbinol™ was dissolved in DMSO and subsequently further diluted before adding to the cells in a concentration range of 0-25-50 μg/ml. Total amount of DMSO in the well was 0.1% DMSO. After 1 hour of preincubation of the mixture of blood cells and Silbinol™ or blood cells and 100 μM Ibuprofen™ at 37° C. in a humidified atmosphere containing 5% CO2, 1 μg/ml LPS was added and incubated for another 20 hours. Plates were centrifuged (5 minutes, 1200 rpm, SorvallRT7™) and supernatants are harvested and stored at −80° C. for further analysis.
PGE2 in the thawed supernatants was determined using the commercial enzyme immunoassay of Biotrak™ (Biotrak Amersham, Buckinghamshire, UK) according to the manufacturer's protocol 2.

[2] = system: PGE2 production by hPBMCs; test: PGE2 production by LPS stimulated hPBMCs (enzyme immunoassay); type: cell-based, human; details: for IC50: Homo sapiens, read-out: estimated IC50 (PGE2 production by hPBMCs after LPS stimulation); for PGE2 production / effect on PGE2 production by hPBMCs (in words): after LPS stimulation
Description: Peripheral Blood Mononuclear Cells (PBMCs) isolated from buffy coats of human blood from 3 healthy donors were stored in liquid nitrogen using standard procedures. For each experiment, PBMCs were thawed, transferred into a 50 ml centrifuge tube (BD Falcon, Erembodegem Aalst, Belgium) and cell culture medium (RPNI-1640 containing 25 mM HEPES and 2 mM L-glutamine (Life-Technologies, Merelbeke, Belgium) and further enriched with 10% heat inactivated fetal calf serum (^hiFCS), 120 U/ml penicillin/streptomycin and 1.2 mM sodium pyruvate) was added in a drop-wise fashion. Subsequently cells were centrifuged for 5 minutes at 1200 rpm (Sorvall RT7™). Cells were washed with cell culture medium (two times) and counted using a coulter counter (Beckman Coulter, Fullerton, Calif., USA). Parallel, a microscopic viability check using trypan blue is performed. PBMCs were pipetted into a 96-well flat bottom microtiterplate (BD Falcon, Brembodegem Aalst, Belgium), 1.5×10^5 cells per well. Pterostilbene (Chromadex, Santa Anna, Calif., USA), Silbinol™ (Pterocarpus marsupium plant extract containing at least 5 wt. % pterostilbene based on dried weight; Sabinsa Corporation, Piscataway, USA) and resveratrol (Sigma, St. Louis, USA) were dissolved in dimethylsulfoxide (DMSO) and subsequently further diluted in cell culture medium and added to the cells in a concentration range (see below). DMSO concentration in the wells was 0.1%. Subsequently the cells were incubated for 1 hour at 37° C. in a humidified atmosphere containing 5% CO2. After 1 hour, lipopolysaccharide (LPS, E. Coli […], […]) was added and the cells were incubated for 20 hours at 37° C. in a humidified atmosphere containing 5% CO2. The supernatants were harvested 20 hours after incubation and stored at −80° C. until further analysis. Metabolic activity of the PBMCs with and without the presence of test compound was determined using the succinate dehydrogenase activity.
Concentrations of 3.12, 6.25, 12.5, 25 and 50 μg/ml of either Pterostilbene or Silbinol™ were tested to find the dose range of inhibitory activity (Table 1 and 2). Following the determination of the dose range with PGE2 production inhibitory activity, concentrations of 0, 2, 4, 8, 16 and 32 μg/ml Silbinol™ (Table 3) and 0, 0.037, 0.11, 0.33, 1 and 3 μM pterostilbene (Table 4) were tested.
For comparative purposes, the effects 0, 0.33, 1, 3, 9 and 27 μM resveratrol on PGE2 production by hPBMCs was determined (Table 5).
PGE2 in the thawed supernatants was measured using a commercial enzyme immunoassay (Biotrak Amersham, Buckinghamshire, UK) according to the manufacturer's protocol 2.

hPBMCs = test: Metabolic activity of PBMCs (succinate dehydrogenase activity); type: cell-based, human; details: lower dose range (Table 4), compared with PGE2 inhibition
Description: Peripheral Blood Mononuclear Cells (PBMCs) isolated from buffy coats of human blood from 3 healthy donors were stored in liquid nitrogen using standard procedures. For each experiment, PBMCs were thawed, transferred into a 50 ml centrifuge tube (BD Falcon, Erembodegem Aalst, Belgium) and cell culture medium (RPNI-1640 containing 25 mM HEPES and 2 mM L-glutamine (Life-Technologies, Merelbeke, Belgium) and further enriched with 10% heat inactivated fetal calf serum (^hiFCS), 120 U/ml penicillin/streptomycin and 1.2 mM sodium pyruvate) was added in a drop-wise fashion. Subsequently cells were centrifuged for 5 minutes at 1200 rpm (Sorvall RT7™). Cells were washed with cell culture medium (two times) and counted using a coulter counter (Beckman Coulter, Fullerton, Calif., USA). Parallel, a microscopic viability check using trypan blue is performed. PBMCs were pipetted into a 96-well flat bottom microtiterplate (BD Falcon, Brembodegem Aalst, Belgium), 1.5×10^5 cells per well. […] Metabolic activity of the PBMCs with and without the presence of test compound was determined using the succinate dehydrogenase activity.

Structure (SMILES): CC(C)Cc1ccc(C(C)C(=O)O)cc1 (stereo not shown) [Ibuprofen]
PGE2 production ([1]; 100 μM, LPS stimulated mouse whole blood): 1709 pg/mL
effect on PGE2 production in mouse whole blood (in words) ([1]; LPS stimulated): inhibit PGE2 production

IC50 [2]: 4700 nM
Structure (SMILES): Oc1ccc(C=Cc2cc(O)cc(O)c2)cc1 [Resveratrol, resveratrol, reference compound]
PGE2 production ([2]; Table 5, 0.33 μM, Mean of donors A-C): 6717 pg/mL
PGE2 production ([2]; Table 5, 0.33 μM, donor A): 8380 pg/mL
PGE2 production ([2]; Table 5, 0.33 μM, donor B): 8060 pg/mL
PGE2 production ([2]; Table 5, 0.33 μM, donor C): 3710 pg/mL
PGE2 production ([2]; Table 5, 1 μM, Mean of donors A-C): 5601 pg/mL
PGE2 production ([2]; Table 5, 1 μM, donor A): 6835 pg/mL
PGE2 production ([2]; Table 5, 1 μM, donor B): 7369 pg/mL
PGE2 production ([2]; Table 5, 1 μM, donor C): 2597 pg/mL
PGE2 production ([2]; Table 5, 3 μM, Mean of donors A-C): 2916 pg/mL
PGE2 production ([2]; Table 5, 3 μM, donor A): 3120 pg/mL
PGE2 production ([2]; Table 5, 3 μM, donor B): 5449 pg/mL
PGE2 production ([2]; Table 5, 3 μM, donor C): 178 pg/mL
PGE2 production ([2]; Table 5, 9 μM, Mean of donors A-C): 1383 pg/mL
PGE2 production ([2]; Table 5, 9 μM, donor A): 1213 pg/mL
PGE2 production ([2]; Table 5, 9 μM, donor B): 2936 pg/mL
PGE2 production ([2]; Table 5, 27 μM, Mean of donors A-C): 1090 pg/mL
PGE2 production ([2]; Table 5, 27 μM, donor A): 913 pg/mL
PGE2 production ([2]; Table 5, 27 μM, donor B): 2355 pg/mL
effect on PGE2 production by hPBMCs (in words) [2]: inhibit PGE2 production

IC50 [2]: 830 nM
Structure (SMILES): COc1cc(C=Cc2ccc(O)cc2)cc(OC)c1 [Pterostilbene, 4′-hydroxy-3,5-dimethoxystilbene]
PGE2 production ([2]; 0.037 μM, Mean of donors A-C): 5434 pg/mL
PGE2 production ([2]; 0.037 μM, donor A): 5957 pg/mL
PGE2 production ([2]; 0.037 μM, donor B): 7788 pg/mL
PGE2 production ([2]; 0.037 μM, donor C): 2574 pg/mL
PGE2 production ([2]; 0.11 μM, Mean of donors A-C): 4494 pg/mL
PGE2 production ([2]; 0.11 μM, donor A): 5305 pg/mL
PGE2 production ([2]; 0.11 μM, donor B): 6930 pg/mL
PGE2 production ([2]; 0.11 μM, donor C): 1248 pg/mL
PGE2 production ([2]; 0.33 μM, Mean of donors A-C): 2589 pg/mL
PGE2 production ([2]; 0.33 μM, donor A): 2786 pg/mL
PGE2 production ([2]; 0.33 μM, donor B): 4782 pg/mL
PGE2 production ([2]; 0.33 μM, donor C): 199 pg/mL
PGE2 production ([2]; 1 μM, Mean of donors A-C): 1879 pg/mL
PGE2 production ([2]; 1 μM, donor A): 2067 pg/mL
PGE2 production ([2]; 1 μM, donor B): 3570 pg/mL
PGE2 production ([2]; 3 μM, Mean of donors A-C): 691 pg/mL
PGE2 production ([2]; 3 μM, donor A): 280 pg/mL
PGE2 production ([2]; 3 μM, donor B): 1794 pg/mL
PGE2 production ([2]; 3.12 μg/ml, Mean of donors A-C): 39 pg/mL
PGE2 production ([2]; 3.12 μg/ml, donor B): 117 pg/mL
PGE2 production ([2]; 6.25 μg/ml, Mean of donors A-C): 9 pg/mL
PGE2 production ([2]; 6.25 μg/ml, donor A): 28 pg/mL
PGE2 production ([2]; 12.5 μg/ml, Mean of donors A-C): 2 pg/mL
PGE2 production ([2]; 12.5 μg/ml, donor B): 5 pg/mL
PGE2 production ([2]; 25 μg/ml, Mean of donors A-C): 44 pg/mL
PGE2 production ([2]; 25 μg/ml, donor A): 63 pg/mL
PGE2 production ([2]; 25 μg/ml, donor B): 69 pg/mL
PGE2 production ([2]; 50 μg/ml, Mean of donors A-C): 269 pg/mL
PGE2 production ([2]; 50 μg/ml, donor A): 584 pg/mL
PGE2 production ([2]; 50 μg/ml, donor B): 222 pg/mL
effect on PGE2 production by hPBMCs (in words) [2]: inhibit PGE2 production
metabolic activity of hPBMCs (hPBMCs): decrease, however to a much lesser extent
